From patent USRE31731E, “Herbicidal 4-trifluoromethyl-4-nitrodiphenyl ethers” (priority 1978, dated 1984)

Columns and labels:
Format in all cases: in vivo
Monocots [1] = assay: Herbicidal activity, postemergence, monocot weeds (Table II); details: post-emergence, 336 h, about 2 weeks, read-out: % control (percent of plants killed); for pest or weed control at 4483.4 g/ha: 4 lb./A.; for pest or weed control at 2241.7 g/ha: 2 lb./A.
Procedure, shortened: (§1)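 Seeds planted in soil flats; sprayed immediately after planting (pre) or 2 weeks after germination (post), compound in acetone diluted with water, 50 gal/A carrier volume at rates in lb/A. Phytotoxicity scored about 2 weeks after application as average percent of plants killed.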

soybeans = assay: Crop tolerance, soybeans; details: 50% or less kill of crop at rates giving more than 50% kill of weeds
Description: (§2) The following test procedure is employed. Seeds of selected crops and weeds are planted in soil in flats. For preemergence tests, the flats are treated with the test compound immediately after the planting. For postemergence tests, the seeds are allowed to germinate, and after 2 weeks the flats are treated with the test compound. The compound to be evaluated is dissolved in acetone, diluted with water, and sprayed over the flats using a carrier volume equivalent to 50 gallons per acre at the rate of application (pounds per acre, lb/A.) specified in the tables. About 2 weeks after the application of the test compound, the state of growth of the plants is observed and the phytotoxic effect of the compound is evaluated. Table II gives the average percent control achieved by the test compounds in terms of the percent of the plants which are killed by the compounds.
(§3) Following the general test procedure of Example 73, diphenyl ethers are evaluated for significant tolerance (as shown by 50% or less kill of the test crop at levels of application which give more than 50% kill of many or all of the weeds of Example 73) towards some or all of the following common agronomic crops (not all compounds tested against all crops): alfalfa, snapbeans, corn, cotton, cucumbers, peanuts, rape, rice, safflower, soybeans, tomatoes, and wheat.

Monocots [2] = assay: Herbicidal activity, preemergence, monocot weeds (Table II); details: pre-emergence, 336 h, about 2 weeks, read-out: % control (percent of plants killed); for pest or weed control at 4483.4 g/ha: 4 lb./A.; for pest or weed control at 2241.7 g/ha: 2 lb./A.
Procedure, shortened: as §1

cotton = assay: Crop tolerance, cotton; details: 50% or less kill of crop at rates giving more than 50% kill of weeds
Description: as §2, §3

rice = assay: Crop tolerance, rice; details: 50% or less kill of crop at rates giving more than 50% kill of weeds
Description: as §2, §3

peanuts = assay: Crop tolerance, peanuts; details: 50% or less kill of crop at rates giving more than 50% kill of weeds
Description: as §2, §3

safflower = assay: Crop tolerance, safflower; details: preemergence; 50% or less kill of crop at rates giving more than 50% kill of weeds
Description: as §2, §3

Dicots [3] = assay: Herbicidal activity, postemergence, dicot weeds (Table II); details: post-emergence, 336 h, about 2 weeks, read-out: % control (percent of plants killed); for pest or weed control at 4483.4 g/ha: 4 lb./A.; for pest or weed control at 2241.7 g/ha: 2 lb./A.
Procedure, shortened: (§4)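 Compound in acetone/water sprayed on seeded soil flats at 50 gal/acre carrier and the stated lb/A rate, either right after planting (preemergence) or 2 weeks after germination (postemergence). About 2 weeks later, percent control recorded as the percentage of plants killed.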

Dicots [4] = assay: Herbicidal activity, preemergence, dicot weeds (Table II); details: pre-emergence, 336 h, about 2 weeks, read-out: % control (percent of plants killed); for pest or weed control at 4483.4 g/ha: 4 lb./A.; for pest or weed control at 2241.7 g/ha: 2 lb./A.
Procedure, shortened: as §4

corn = assay: Crop tolerance, corn; details: 50% or less kill of crop at rates giving more than 50% kill of weeds
Description: as §2, §3

wheat = assay: Crop tolerance, wheat; details: 50% or less kill of crop at rates giving more than 50% kill of weeds
Description: as §2, §3

snapbeans = assay: Crop tolerance, snapbeans; details: preemergence; 50% or less kill of crop at rates giving more than 50% kill of weeds
Description: as §2, §3

[5] = postemergence or on transplanted rice

SMILES | pest or weed control at 4483.4 g/ha (Monocots [1]) | Tolerance to soybeans (soybeans; preemergence) | pest or weed control at 4483.4 g/ha (Monocots [2]) | Tolerance to cotton (cotton; preemergence) | Tolerance to rice (rice; [5]) | Tolerance to peanuts (peanuts; preemergence) | pest or weed control at 4483.4 g/ha (Dicots [3]) | pest or weed control at 4483.4 g/ha (Dicots [4]) | Tolerance to corn (corn; postemergence) | Tolerance to corn (corn; preemergence) | Tolerance to rice (rice; preemergence) | Tolerance to wheat (wheat; postemergence) | Tolerance to wheat (wheat; preemergence) | Tolerance to peanuts (peanuts; postemergence) | pest or weed control at 2241.7 g/ha (Monocots [1]) | pest or weed control at 2241.7 g/ha (Monocots [2]) | pest or weed control at 2241.7 g/ha (Dicots [3]) | pest or weed control at 2241.7 g/ha (Dicots [4]) | other results
CCOc1cc(Oc2ccc(C(F)(F)F)cc2Cl)ccc1[N+](=O)[O-] [Example 3, 2-Chloro-α,α,α-trifluoro-p-tolyl-3-ethoxy-4-nitrophenyl ether] | 99% | Tolerance | 89% | Tolerance | Tolerance | Tolerance | 100% | 99% |  |  |  |  |  |  |  |  |  |  | pest or weed control at 11208.5 g/ha (Monocots [1]; 10 lb./A.): 100%; Tolerance to soybeans (soybeans; postemergence or layby): Tolerance; pest or weed control at 11208.5 g/ha (Monocots [2]; 10 lb./A.): 99%; Tolerance to cotton (cotton; postemergence or layby): Tolerance; Tolerance to safflower (safflower): Tolerance; pest or weed control at 11208.5 g/ha (Dicots [3]; 10 lb./A.): 100%; pest or weed control at 11208.5 g/ha (Dicots [4]; 10 lb./A.): 100%
CC(C)Oc1cc(Oc2ccc(C(F)(F)F)cc2Cl)ccc1[N+](=O)[O-] [Example 4] | 80% | Tolerance | 98% | Tolerance |  |  | 100% | 100% | Tolerance | Tolerance | Tolerance | Tolerance | Tolerance | Tolerance |  |  |  |  | Tolerance to snapbeans (snapbeans): Tolerance
CCOC(=O)C(C)Oc1cc(Oc2ccc(C(F)(F)F)cc2Cl)ccc1[N+](=O)[O-] (stereo not drawn) [Example 26, 2-Chloro-α,α,α-trifluoro-p-tolyl-3-(1-carbethoxyethoxy)-4-nitrophenyl ether] | 99% | Tolerance | 98% |  |  |  | 100% | 100% | Tolerance |  |  |  | Tolerance |  | 93% | 75% | 100% | 99% | Tolerance to snapbeans (snapbeans): Tolerance
C#CC(C)Oc1cc(Oc2ccc(C(F)(F)F)cc2Cl)ccc1[N+](=O)[O-] (centres unmarked) [Example 30] | 75% | Tolerance | 81% | Tolerance | Tolerance | Tolerance | 100% | 99% |  |  | Tolerance | Tolerance |  |  | 91% | 78% | 100% | 94% | 
CCC(=O)Nc1cc(Oc2ccc(C(F)(F)F)cc2Cl)ccc1[N+](=O)[O-] [Example 34] | 32% | Tolerance | 35% |  | Tolerance | Tolerance | 89% | 52% | Tolerance | Tolerance | Tolerance | Tolerance | Tolerance | Tolerance | 47% | 83% | 90% | 85% | Tolerance to soybeans (soybeans; postemergence or layby): Tolerance
CSCCOc1cc(Oc2ccc(C(F)(F)F)cc2Cl)ccc1[N+](=O)[O-] [Example 40] | 64% | Tolerance | 86% |  | Tolerance | Tolerance | 100% | 92% | Tolerance | Tolerance | Tolerance |  | Tolerance | Tolerance | 81% | 88% | 100% | 98% | 
CCN(CCO)c1cc(Oc2ccc(C(F)(F)F)cc2Cl)ccc1[N+](=O)[O-] [Example 54] | 79% | Tolerance | 83% |  | Tolerance |  | 100% | 75% | Tolerance | Tolerance | Tolerance | Tolerance | Tolerance | Tolerance | 71% | 98% | 100% | 98% | 
